Entries after “also recorded” stand apart in the source; their conditions may differ.
What was measured:
[1] = test system: stable expression cells TK6/p53R2×3-Luc2P; assay: Mutagenicity test: luciferase reporter, stable expression cells TK6/p53R2×3-Luc2P
[2] = test system: MCF-7 cells transfected with pGL4-p53R2×3-SV40-Luc2; assay: Luciferase reporter, pGL4-p53R2×3-SV40-Luc2 transformant of MCF-7; type: cell-based, human; settings: MCF-7, pGL4-p53R2×3-SV40-Luc2; 8 hours after contact; FIG. 4
Source text: (§1) The obtained various transformants of the MCF-7 cells, the HepG2 cells, the A549 cells, the HCT116 cells, the HEK293 cells, and the NB1RGB cells were used to measure luciferase activities in the same manner as in the TK6 cells.

[3] = test system: NB1RGB cells transfected with PGV-p53R2×3-Luc; assay: Luciferase reporter, PGV-p53R2×3-Luc transformant of NB1RGB; type: cell-based, human
Procedure: (§2) To the obtained various transformants of MCF-7, HepG2, A549, HCT116, HEK293, and NB1RGB, adriamycin dissolved in DMSO was added, followed by culture for 8 hours. After that, luciferase activities were measured in the same manner as in the TK6 cells.
(§3) Transfection with plasmid PGV-p53R2×3-Luc, culture, and luciferase activity measurement were performed in the same manner as in Reference Example 1 described above except that the transformant was cultured for the following culture time: 16 hours in TK6 cells; 24 hours in MCF-7, HepG2, A549, HCT116, and HEK293; and 18 hours in NB1RGB.

[4] = test system: HCT116 cells transfected with PGV-p53R2×3-Luc; assay: Luciferase reporter, PGV-p53R2×3-Luc transformant of HCT116; type: cell-based, human; settings: HCT116, PGV-p53R2×3-Luc
Procedure: as §2, §3

[5] = test system: MCF-7 cells transfected with PGV-p53R2×3-Luc; assay: Luciferase reporter, PGV-p53R2×3-Luc transformant of MCF-7; type: cell-based, human; settings: MCF-7, PGV-p53R2×3-Luc
Procedure: as §2, §3

[6] = test system: TK6 cells transfected with pGL4-p53R2×3-SV40-Luc2; assay: Mutagenicity test: luciferase reporter, transient pGL4-p53R2×3-SV40-Luc2 transformant; type: cell-based, human; settings: 0.003-0.7 μg/mL
Procedure: Wild-type p53 of a human lymphoblast cell line TK6 cell was confirmed to be normal by DNA sequencing (ABI Prism BigDye Terminater v3.0; manufactured by Applied Biosystems) using primers for sequencing 5′-ACACGCTTCCCTGGATTG-3′ (SEQ ID NO: 17) and 5′-[…]-3′ (SEQ ID NO: 18).
It should be noted that the amount of pGL4-p53R2×3-SV40-Luc2 for transfection was adjusted to 0.25 ng/well.
Next, after the removal of the medium, a cell lysis solution (manufactured by Promega) was added at 25 μl/well, and the whole was left to stand at room temperature for 15 minutes. The plate was set in a luminometer LB96P with an enzyme substrate automatic injector (manufactured by Berthold), and a substrate solution (manufactured by Promega) was automatically dispensed at 30 μL/well to measure luciferase activities.
Wild-type p53 of a human lymphoblast cell line TK6 was confirmed to be normal in the same manner as described above. […] It should be noted that the amount of pGL4-p53R2×3-SV40-Luc2 for transfection was adjusted to 0.25 ng/well.

[7] = test system: NB1RGB cells transfected with pGL4-p53R2×3-SV40-Luc2; assay: Luciferase reporter, pGL4-p53R2×3-SV40-Luc2 transformant of NB1RGB; type: cell-based, human; settings: 8 hours after contact, FIG. 4
Source text: as §1

[8] = test system: A549 cells transfected with pGL4-p53R2×3-SV40-Luc2; assay: Luciferase reporter, pGL4-p53R2×3-SV40-Luc2 transformant of A549; type: cell-based, human; settings: A549, pGL4-p53R2×3-SV40-Luc2; 8 hours after contact; FIG. 4
Source text: as §1

[9] = test system: A549 cells transfected with PGV-p53R2×3-Luc; assay: Luciferase reporter, PGV-p53R2×3-Luc transformant of A549; type: cell-based, human; settings: A549, PGV-p53R2×3-Luc
Procedure: as §2, §3

[10] = test system: HEK293 cells transfected with pGL4-p53R2×3-SV40-Luc2; assay: Luciferase reporter, pGL4-p53R2×3-SV40-Luc2 transformant of HEK293; type: cell-based, human; settings: HEK293, pGL4-p53R2×3-SV40-Luc2; 8 hours after contact; FIG. 4
Source text: as §1

[11] = test system: HepG2 cells transfected with PGV-p53R2×3-Luc; assay: Luciferase reporter, PGV-p53R2×3-Luc transformant of HepG2; type: cell-based, human; settings: HepG2, PGV-p53R2×3-Luc
Procedure: as §2, §3

[12] = test system: HCT116 cells transfected with pGL4-p53R2×3-SV40-Luc2; assay: Luciferase reporter, pGL4-p53R2×3-SV40-Luc2 transformant of HCT116; type: cell-based, human; settings: HCT116, pGL4-p53R2×3-SV40-Luc2; 8 hours after contact; FIG. 4
Source text: as §1

[13] = test system: TK6 cells transfected with PGV-p53R2×3-Luc; assay: Mutagenicity test: luciferase reporter, transient PGV-p53R2×3-Luc transformant; type: cell-based, human; settings: TK6, PGV-p53R2×3-Luc
Procedure: Next, the same operation as described above was performed to measure luciferase activities except that the plasmid PGV-p53R2×3-Luc prepared in Example 1 of JP 4243716 B2 was used in place of pGL4-p53R2×3-SV40-Luc2.
as §3

[14] = test system: HepG2 cells transfected with pGL4-p53R2×3-SV40-Luc2; assay: Luciferase reporter, pGL4-p53R2×3-SV40-Luc2 transformant of HepG2; type: cell-based, human; settings: HepG2, pGL4-p53R2×3-SV40-Luc2; 8 hours after contact; FIG. 4
Source text: as §1

[15] = test system: HEK293 cells transfected with PGV-p53R2×3-Luc; assay: Luciferase reporter, PGV-p53R2×3-Luc transformant of HEK293; type: cell-based, human; settings: HEK293, PGV-p53R2×3-Luc
Procedure: as §2, §3

[16] = test system: cells TK6/p53R2×3-Luc2P/Rluc; assay: Mutagenicity test with internal control, cells TK6/p53R2×3-Luc2P/Rluc; type: cell-based, human; settings: 0.1-20 μg/mL; 6 hours; FIG. 11
Procedure: Next, in accordance with the method of Example 8, cells stably expressing Luc2P and Rluc were acquired and named TK6/p53R2×3-Luc2P/Rluc.
Next, the above-mentioned two kinds of cells were brought into contact with 5-aza-2′-deoxycytidine (5-aza-dC).
After the removal of the medium, the expression amount of the Luc2P gene was determined as a relative value to the expression amount of the Rluc gene. Specifically, through the use of a luminometer LB96P with an enzyme substrate automatic injector (manufactured by Berthold), first, a substrate solution for firefly luciferase measurement (manufactured by Promega) was dispensed at 30 μL/well to measure the expression amount of the Luc2P gene. After that, a substrate solution for Sea pansy luciferase measurement (manufactured by Promega) was further dispensed at 30 μL/well to determine the expression amount of the Rluc gene.

COc1cccc2c1C(=O)c1c(O)c3c(c(O)c1C2=O)C[C@@](O)(C(=O)CO)C[C@@H]3O[C@H]1C[C@H](N)[C@H](O)[C@H](C)O1 [adriamycin]
Luciferase activity (% of Solvent control), time-dependent change ([1]; 0.2 μg/mL, 2, 4, 6 and 8 hours, FIG. 9): an increase in luciferase activity due to an increase in concentration of adriamycin | Luciferase activity (% of Solvent control) ([1]; 0.003-0.7 μg/mL, 6 hours, FIG. 10): an increase in luciferase activity due to an increase in concentration of adriamycin | Luciferase activity (% of Solvent control) [2]: only slight luciferase activity | Luciferase activity (% of Solvent control) ([3]; contact for 8 hours, FIG. 5): only a slight increase in luciferase activity | Luciferase activity (% of Solvent control) ([3]; culture 18 hours, FIG. 6): high luciferase activity | Luciferase activity (% of Solvent control) ([4]; contact for 8 hours, FIG. 5): only a slight increase in luciferase activity | Luciferase activity (% of Solvent control) ([4]; culture 24 hours, FIG. 6): high luciferase activity | Luciferase activity (% of Solvent control) ([5]; contact for 8 hours, FIG. 5): only a slight increase in luciferase activity | Luciferase activity (% of Solvent control) ([5]; culture 24 hours, FIG. 6): high luciferase activity | Luciferase activity compared with the other cells ([5]; culture 24 hours, FIG. 6): higher luciferase activities | Luciferase activity (% of Solvent control) ([6]; contact for 4 hours): such an increase in luciferase activity due to an increase in concentration of adriamycin as to be sufficient for performing a mutagenicity test | Luciferase activity (% of Solvent control) ([6]; contact for 8 hours): very high luciferase activity | Luciferase activity (% of Solvent control) ([6]; dependence on concentration, FIG. 3): an increase in luciferase activity due to an increase in concentration of adriamycin | Luciferase activity (% of Solvent control) [7]: only slight luciferase activity | Luciferase activity (% of Solvent control) [8]: only slight luciferase activity | Luciferase activity (% of Solvent control) ([9]; contact for 8 hours, FIG. 5): only a slight increase in luciferase activity | Luciferase activity (% of Solvent control) ([9]; culture 24 hours, FIG. 6): high luciferase activity | Luciferase activity (% of Solvent control) [10]: only slight luciferase activity | Luciferase activity (% of Solvent control) ([11]; contact for 8 hours, FIG. 5): only a slight increase in luciferase activity | Luciferase activity (% of Solvent control) ([11]; culture 24 hours, FIG. 6): high luciferase activity | Luciferase activity compared with the other cells ([11]; culture 24 hours, FIG. 6): higher luciferase activities | Luciferase activity (% of Solvent control) [12]: only slight luciferase activity | Luciferase activity (% of Solvent control) ([13]; 0.003-0.7 μg/mL, contact for 8 hours): very small luciferase activity; also recorded: only a slight increase in luciferase activity | Luciferase activity (% of Solvent control) ([13]; culture 16 hours, FIG. 6): high luciferase activity | Luciferase activity (% of Solvent control) [14]: only slight luciferase activity | Luciferase activity (% of Solvent control) ([15]; contact for 8 hours, FIG. 5): only a slight increase in luciferase activity | Luciferase activity (% of Solvent control) ([15]; culture 24 hours, FIG. 6): high luciferase activity

Nc1ncn([C@H]2C[C@H](O)[C@@H](CO)O2)c(=O)n1 [5-aza-dC, 5-aza-2′-deoxycytidine]
Firefly luciferase (Luc2P) activity not corrected with Rluc activity (w/o internal control) [16]: an increase in measured value due to an increase in concentration of 5-aza-dC | Luc2P activity corrected with Rluc activity as an internal control (with internal control) [16]: no increase in measured value

— patent publication US20140308675A1, “MUTAGENICITY TEST METHOD USING MAMMALIAN CELLS” (NISSIN FOODS HOLDINGS CO., LTD., priority 2011, published 2014)
